The values below come from PubChem BioAssay AID1259411 (Chemical Carcinogenesis Research Information System (CCRIS), 2018).

The source made the active and inactive calls. The rule behind the calls is not given here.

The series concerns rodent carcinogenicity bioassays, tumor incidence. Kind of series: CCRIS carcinogenicity studies. In short, it runs like this: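 Archive of carcinogenicity, mutagenicity, tumor promotion and tumor inhibition results drawn from journals, NCI reports and other sources, expert-reviewed; covers 1985-2011 and is no longer updated.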

Regarding `CC(=O)Nc1ccc(O)cc1`, the carcinogen call is “inactive; negative” (Species: MOUSE, Strain/Sex: B6C3F1/FEMALE, Route: ORAL, Dose: 0, 600, 3000, 6000 PPM IN DIET FOR 103 WK (STUDY DURATION: 106 WK), Dose: 0, 600, 3000, 6000 PPM IN DIET FOR 103 WK (STUDY DURATION: 106 WK)); “inactive; negative” (Species: MOUSE, Strain/Sex: B6C3F1/MALE, Route: ORAL, Dose: 0, 600, 3000, 6000 PPM IN DIET FOR 103 WK (STUDY DURATION: 106 WK), Dose: 0, 600, 3000, 6000 PPM IN DIET FOR 103 WK (STUDY DURATION: 106 WK)); “inactive; negative” (Species: MOUSE, Strain/Sex: B6C3F1/MALE, Route: ORAL, Dose: 0, 5000, 10000 PPM IN DIET BEGINNING AT 6 WK OF AGE AND CONTINUING FOR 70 WK (STUDY DURATION: 72 WK), Dose: 0, 5000, 10000 PPM IN DIET BEGINNING AT 6 WK OF AGE AND CONTINUING FOR 70 WK (STUDY DURATION: 72 WK)); “active; positive” (Species: MOUSE, Strain/Sex: STRAIN-IF/FEMALE, Route: ORAL, Dose: 0, 0.5, 1% IN DIET FOR 18 MO (STUDY DURATION: 18 MO), Dose: 0, 0.5, 1% IN DIET FOR 18 MO (STUDY DURATION: 18 MO), Tumor Site: Type of Lesion: LIVER: HEPATOCELLULAR CARCINOMA OR ADENOMA); “active; positive” (Species: MOUSE, Strain/Sex: STRAIN-IF/MALE,FEMALE, Route: ORAL, Dose: 0.5, 1.0% IN DIET FOR 18 MO, Tumor Site: Type of Lesion: LIVER: HEPATOCELLULAR ADENOMA, CARCINOMA); “active; positive” (Species: MOUSE, Strain/Sex: STRAIN-IF/MALE, Route: ORAL, Dose: 0, 0.5, 1% IN DIET FOR 18 MO (STUDY DURATION: 18 MO), Dose: 0, 0.5, 1% IN DIET FOR 18 MO (STUDY DURATION: 18 MO), Tumor Site: Type of Lesion: LIVER: HEPATOCELLULAR CARCINOMA, HEPATOCELLULAR ADENOMA OR CARCINOMA). In addition, the carcinogen call runs as follows: (Species: RAT, Strain/Sex: F344/FEMALE, Route: ORAL, Dose: 0, 0.65, 1.3% IN DIET FOR 104 WK (STUDY DURATION: 130 WK), Dose: 0, 0.65, 1.3% IN DIET FOR 104 WK (STUDY DURATION: 130 WK)) “inactive; negative”; (Species: RAT, Strain/Sex: F344/FEMALE, Route: ORAL, Dose: 0, 600, 3000, 6000 PPM IN DIET FOR 103 WK (STUDY DURATION: 106 WK), Dose: 0, 600, 3000, 6000 PPM IN DIET FOR 103 WK (STUDY DURATION: 106 WK), Tumor Site: Type of Lesion: MULTIPLE ORGANS: MONONUCLEAR CELL LEUKEMIA) “equivocal”; (Species: RAT, Strain/Sex: F344/MALE, Route: ORAL, Dose: 0, 0.45, 0.9% IN DIET FOR 104 WK (STUDY DURATION: 130 WK), Dose: 0, 0.45, 0.9% IN DIET FOR 104 WK (STUDY DURATION: 130 WK)) “inactive; negative”; (Species: RAT, Strain/Sex: F344/MALE, Route: ORAL, Dose: 0, 600, 3000, 6000 PPM IN DIET FOR 103 WK (STUDY DURATION: 106 WK), Dose: 0, 600, 3000, 6000 PPM IN DIET FOR 103 WK (STUDY DURATION: 106 WK)) “inactive; negative”.

Consider `CCCN(CCC)S(=O)(=O)c1ccc(C(=O)O)cc1`, for which the carcinogen call (Species: MOUSE, Strain/Sex: B6C3F1/FEMALE, Route: GAVAGE, Dose: 0, 100, 400 MG/KG IN CORN OIL 5 D/WK FOR 103 WK (STUDY DURATION: 105 WK), Dose: 0, 100, 400 MG/KG IN CORN OIL 5 D/WK FOR 103 WK (STUDY DURATION: 105 WK), Tumor Site: Type of Lesion: LIVER: HEPATOCELLULAR ADENOMA OR CARCINOMA) is “active; positive”; the carcinogen call (Species: MOUSE, Strain/Sex: B6C3F1/MALE, Route: GAVAGE, Dose: 0, 100, 400 MG/KG IN CORN OIL 5 D/WK FOR 103 WK (STUDY DURATION: 105 WK), Dose: 0, 100, 400 MG/KG IN CORN OIL 5 D/WK FOR 103 WK (STUDY DURATION: 105 WK)) was “inactive; negative”; the carcinogen call (Species: RAT, Strain/Sex: F344/FEMALE, Route: GAVAGE, Dose: 0, 100, 400 MG/KG IN CORN OIL 5 D/WK FOR 103 WK (STUDY DURATION: 104 WK), Dose: 0, 100, 400 MG/KG IN CORN OIL 5 D/WK FOR 103 WK (STUDY DURATION: 104 WK)) was “inactive; negative”; the carcinogen call (Species: RAT, Strain/Sex: F344/MALE, Route: GAVAGE, Dose: 0, 100, 400 MG/KG IN CORN OIL 5 D/WK FOR 103 WK (STUDY DURATION: 104 WK), Dose: 0, 100, 400 MG/KG IN CORN OIL 5 D/WK FOR 103 WK (STUDY DURATION: 104 WK)) was “inactive; negative”.

As for `CCN(CC)C(=O)Nc1ccc(OCC(O)CNC(C)(C)C)c(C(C)=O)c1` (stereo unspecified), the carcinogen call by setting is: (Species: MOUSE, Strain/Sex: CD-1/FEMALE, Route: ORAL, Dose: 0, 100, 300, 900 MG/KG IN DIET FOR DURATION OF STUDY (STUDY DURATION: 2 YR), Dose: 0, 100, 300, 900 MG/KG IN DIET FOR DURATION OF STUDY (STUDY DURATION: 2 YR)) “inactive; negative”; (Species: MOUSE, Strain/Sex: CD-1/MALE, Route: ORAL, Dose: 0, 100, 300, 900 MG/KG IN DIET FOR DURATION OF STUDY (STUDY DURATION: 2 YR), Dose: 0, 100, 300, 900 MG/KG IN DIET FOR DURATION OF STUDY (STUDY DURATION: 2 YR)) “inactive; negative”; (Species: RAT, Strain/Sex: SPRAGUE-DAWLEY/FEMALE, Route: ORAL, Dose: 0, 100, 300, 900 MG/KG IN DIET FOR 316 D THEN 0, 30, 100, 300 MG/KG FOR DURATION OF STUDY (STUDY DURATION: 2 YR), Dose: 0, 100, 300, 900 MG/KG IN DIET FOR 316 D THEN 0, 30, 100, 300 MG/KG FOR DURATION OF STUDY (STUDY DURATION: 2 YR)) “inactive; negative”; (Species: RAT, Strain/Sex: SPRAGUE-DAWLEY/MALE, Route: ORAL, Dose: 0, 100, 300, 900 MG/KG IN DIET FOR 316 D THEN 0, 30, 100, 300 MG/KG FOR DURATION OF STUDY (STUDY DURATION: 2 YR), Dose: 0, 100, 300, 900 MG/KG IN DIET FOR 316 D THEN 0, 30, 100, 300 MG/KG FOR DURATION OF STUDY (STUDY DURATION: 2 YR)) “inactive; negative”.

Turning to `C=[N+]=[N-]`, the carcinogen call is, setting by setting: (Species: MOUSE, Route: INHALATION, DERMAL, Tumor Site: Type of Lesion: LUNG) “active; positive”; (Species: RAT, Route: INHALATION, Tumor Site: Type of Lesion: LUNG) “active; positive”.

On to `O=C(O)C(Cl)Br` (stereo unspecified), for which the carcinogen call (Species: Mouse, Strain/Sex: B6C3F1 / Female (50/Group), Route: Oral, Dose: 0, 250, 500, 1,000 mg/l in drinking water for 105 wk, Dose: 0, 250, 500, 1,000 mg/l in drinking water for 105 wk, Tumor Site: Type of Lesion: Liver: hepatocellular neoplasms) was “active; positive. authors describe as clear evidence”; the carcinogen call (Species: Mouse, Strain/Sex: B6C3F1 / Male (50/Group), Route: Oral, Dose: 0, 250, 500, 1,000 mg/l in drinking water for 105 wk, Dose: 0, 250, 500, 1,000 mg/l in drinking water for 105 wk, Tumor Site: Type of Lesion: Liver: hepatocellular neoplasms and hepatoblastoma) is “active; positive. authors describe as clear evidence”; the carcinogen call (Species: Rat, Strain/Sex: F344/N / Female (50/Group), Route: Oral, Dose: 0, 250, 500, 1,000 mg/l in drinking water for 105 wk, Dose: 0, 250, 500, 1,000 mg/l in drinking water for 105 wk, Tumor Site: Type of Lesion: Large Intestine: adenoma, Mammary Gland: multiple fibroadenomas, Pancreatic Islet: adenoma (may have been related), Tumor Site: Type of Lesion: Large Intestine: adenoma, Mammary Gland: multiple fibroadenomas, Pancreatic Islet: adenoma (may have been related)) is “active; positive (some of the p values do not reach significance.) authors describe as c”; the carcinogen call (Species: Rat, Strain/Sex: F344/N / Male (50/Group), Route: Oral, Dose: 0, 250, 500, 1,000 mg/l in drinking water for 105 wk, Dose: 0, 250, 500, 1,000 mg/l in drinking water for 105 wk, Tumor Site: Type of Lesion: Mesothelium: malignant mesothelioma, Large Intestine: adenoma, Pancreatic Islet: adenoma (may have been related), Tumor Site: Type of Lesion: Mesothelium: malignant mesothelioma, Large Intestine: adenoma, Pancreatic Islet: adenoma (may have been related)) was “active; positive. authors describe as clear evidence”.

Consider `O=C1NCCN1c1ncc([N+](=O)[O-])s1`, for which the carcinogen call is, setting by setting: (Species: HAMSTER, Route: ORAL, Tumor Site: Type of Lesion: FORESTOMACH, URINARY BLADDER) “active; positive”; (Species: MOUSE, Route: ORAL, Tumor Site: Type of Lesion: FORESTOMACH, MAMMARY GLAND, OVARIES, LUNG, URINARY BLADDER, Tumor Site: Type of Lesion: FORESTOMACH, MAMMARY GLAND, OVARIES, LUNG, URINARY BLADDER) “active; positive”.
